# The source made the active and inactive calls.
# How the values were obtained:
# [1] = target: T1, Endoribonuclease toxin MazF (Escherichia coli K-12, UniProt P0AE70); assay: MazF toxin RNase activators, dose response, biochemical, fluorescence, single-stranded RNA substrate, uHTS hits (AID 588481); type: functional
# T1 sequence (P0AE70 whole entry): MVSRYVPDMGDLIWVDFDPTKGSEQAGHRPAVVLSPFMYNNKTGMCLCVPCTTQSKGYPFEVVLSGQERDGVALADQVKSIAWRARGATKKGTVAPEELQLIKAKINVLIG
# [2] = target: T1, Endoribonuclease toxin MazF; assay: fluorescent RNA oligo signal without MazF, dose response, counter-screen for MazEF activator project, biochemical, fluorescence, single-stranded RNase substrate (AID 588502); type: functional
# [3] = HEp-2 cell cytotoxicity, dose response, cytotoxicity control for RSV inhibitor project, HTS (AID 2410); type: functional; settings: human respiratory syncytial virus
# [4] = inhibitors of firefly luciferase expression or activity, dose response, H4 neuroglioma cells, luminescence (AID 1990); type: functional, cell-based
# [5] = Luminescence Cell-Based Dose Response HTS to Identify Inhibitors of 5'UTR Stem-Loop Driven Prion Protein mRNA Translation in H4 Neuroglioblastoma Cells. [Related pubchem assays: 1827 (Project Summary), 1813 (Primary HTS)]; type: functional
# [6] = inhibitors of SNCA 5'UTR-driven reporter translation, confirmation, H4 neuroglioma cells, luminescence (AID 1988); type: functional, cell-based
# HEK293 [7] = assay: inhibitors of LMP1-driven NF-kB reporter, dose response, cell-based, HEK293, luciferase, cherry-pick (AID 588343); type: functional; settings: Homo sapiens
# [8] = A549 cell cytotoxicity, dose response, cytotoxicity control, plate reader, cherry-pick, antagonist series (AID 743412); type: functional, cell-based
# [9] = HepG2 cell cytotoxicity, dose response, cytotoxicity control, plate reader, cherry-pick, antagonist series (AID 743416); type: functional, cell-based
# [10] = LGR2 antagonists, dose response, cell-based, HEK293, CRE-luciferase reporter, cherry pick, set 2 (AID 743343); type: functional;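 note: transfected cells were stimulated with diluted bursicon conditioned medium after compound addition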
# [11] = MC4R antagonists, dose response, counter-screen for LGR2 antagonist project, cell-based, plate reader, cherry pick (AID 743444); type: functional;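 note: transfected HEK 293 cells stimulated with alpha-MSH peptide; potency of inhibitors of the alpha-MSH evoked signal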
# Cytochrome P450 3A4 = Cytochrome P450 3A4 (Homo sapiens, UniProt P08684);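 note: CYP3A4 tested as one member of a cytochrome P450 panel screen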
# Sequence of Cytochrome P450 3A4 (P08684 whole entry): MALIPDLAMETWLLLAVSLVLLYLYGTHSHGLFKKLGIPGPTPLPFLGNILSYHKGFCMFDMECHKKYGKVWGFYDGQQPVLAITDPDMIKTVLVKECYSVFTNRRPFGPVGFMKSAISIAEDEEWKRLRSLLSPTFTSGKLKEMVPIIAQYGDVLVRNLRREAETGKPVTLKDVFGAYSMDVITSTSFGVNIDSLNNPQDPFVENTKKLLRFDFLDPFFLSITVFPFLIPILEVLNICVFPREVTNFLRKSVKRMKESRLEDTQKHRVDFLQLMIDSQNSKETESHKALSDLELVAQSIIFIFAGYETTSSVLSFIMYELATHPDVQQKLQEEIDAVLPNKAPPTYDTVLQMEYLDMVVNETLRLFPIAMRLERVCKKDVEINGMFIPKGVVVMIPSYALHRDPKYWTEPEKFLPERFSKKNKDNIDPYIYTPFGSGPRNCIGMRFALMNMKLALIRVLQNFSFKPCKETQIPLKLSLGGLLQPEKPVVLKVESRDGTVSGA
# Cytochrome P450 2D6 = Cytochrome P450 2D6 (Homo sapiens, UniProt P10635);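 note: CYP2D6 member of a cytochrome P450 panel assay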
# Sequence of Cytochrome P450 2D6 (P10635 whole entry): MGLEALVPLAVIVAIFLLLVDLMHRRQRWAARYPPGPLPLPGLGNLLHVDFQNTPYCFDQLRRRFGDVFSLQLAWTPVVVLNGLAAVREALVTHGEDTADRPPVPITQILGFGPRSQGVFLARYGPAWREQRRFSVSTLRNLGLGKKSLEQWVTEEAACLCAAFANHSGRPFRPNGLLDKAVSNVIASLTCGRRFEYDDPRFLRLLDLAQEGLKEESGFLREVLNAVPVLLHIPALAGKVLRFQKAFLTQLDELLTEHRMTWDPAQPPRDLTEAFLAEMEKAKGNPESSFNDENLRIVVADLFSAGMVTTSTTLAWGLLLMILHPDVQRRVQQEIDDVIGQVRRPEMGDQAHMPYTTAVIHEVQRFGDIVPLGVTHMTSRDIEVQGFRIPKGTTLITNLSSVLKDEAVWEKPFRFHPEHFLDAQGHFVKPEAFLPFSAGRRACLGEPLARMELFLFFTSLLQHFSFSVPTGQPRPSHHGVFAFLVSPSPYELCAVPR
# [12] = tested on: Streptococcus sp. 'group A'; assay: growth inhibition of control SK(-) GAS strain, dose response, counter-screen for streptokinase expression inhibitor project, luminescence, kanamycin, BacTiterGlo, confirmation (AID 1900); type: functional, organism-based
# Streptokinase A = target: T2, Streptokinase A (Streptococcus pyogenes serotype M1, UniProt P10520); assay: S. pyogenes streptokinase expression inhibitors, potency, dose response, plasminogen activation absorbance, OD405 (AID 1914); type: functional, Streptococcus pyogenes M1 GAS;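 note: secreted streptokinase activity via plasminogen activation per viability signal from cell pellet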
# T2 sequence (P10520 whole entry): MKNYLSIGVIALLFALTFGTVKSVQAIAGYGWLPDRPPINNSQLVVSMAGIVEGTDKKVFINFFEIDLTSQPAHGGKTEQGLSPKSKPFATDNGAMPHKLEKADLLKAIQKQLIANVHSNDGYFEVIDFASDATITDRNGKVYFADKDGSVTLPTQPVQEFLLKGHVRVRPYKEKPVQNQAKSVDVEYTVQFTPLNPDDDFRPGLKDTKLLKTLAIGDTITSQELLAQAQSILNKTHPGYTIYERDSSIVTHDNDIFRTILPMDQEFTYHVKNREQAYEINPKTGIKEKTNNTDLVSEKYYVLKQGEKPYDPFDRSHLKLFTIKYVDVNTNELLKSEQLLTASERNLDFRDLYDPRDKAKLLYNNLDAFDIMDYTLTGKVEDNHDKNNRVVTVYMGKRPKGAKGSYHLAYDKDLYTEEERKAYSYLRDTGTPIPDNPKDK
# Streptococcus = assay: Group A Streptococcus viability loss, dose response, counter-screen for streptokinase expression inhibitor project, luminescence, BacTiterGlo (AID 1915); type: functional, organism-based;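 note: potency for reduction of bacterial viability or growth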
# [13] = target: Peroxisome proliferator-activated receptor gamma/Nuclear receptor coactivator 1 (Homo sapiens, UniProt P37231); assay: (§1) TR-FRET dose response biochemical High Throughput Screening assay for agonists of the steroid receptor coactivator 1 (SRC-1) recruitment by the peroxisome proliferator-activated receptor gamma (PPAR gamma): non-selective agonists. [Related pubchem assays (depositor defined):AID1300, AID1808, AID504735, AID631]; type: protein assay
# Sequence of Peroxisome proliferator-activated receptor gamma/Nuclear receptor coactivator 1 (P37231 whole entry): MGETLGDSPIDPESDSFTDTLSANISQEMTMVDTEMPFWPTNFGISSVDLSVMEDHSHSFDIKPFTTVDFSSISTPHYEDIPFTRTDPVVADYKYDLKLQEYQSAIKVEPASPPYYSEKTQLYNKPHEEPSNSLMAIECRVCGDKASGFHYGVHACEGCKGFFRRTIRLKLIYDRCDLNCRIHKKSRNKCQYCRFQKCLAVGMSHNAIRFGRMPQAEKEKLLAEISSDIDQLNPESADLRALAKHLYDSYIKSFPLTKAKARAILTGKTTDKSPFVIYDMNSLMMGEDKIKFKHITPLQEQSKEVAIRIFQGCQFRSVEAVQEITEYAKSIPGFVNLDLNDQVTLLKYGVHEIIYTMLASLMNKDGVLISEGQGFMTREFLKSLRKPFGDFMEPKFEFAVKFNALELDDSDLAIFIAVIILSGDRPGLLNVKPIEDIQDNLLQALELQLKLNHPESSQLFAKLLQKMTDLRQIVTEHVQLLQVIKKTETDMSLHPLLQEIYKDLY
# Sequence of Peroxisome proliferator-activated receptor gamma/Nuclear receptor coactivator 1 (Q15788 whole entry, further chain): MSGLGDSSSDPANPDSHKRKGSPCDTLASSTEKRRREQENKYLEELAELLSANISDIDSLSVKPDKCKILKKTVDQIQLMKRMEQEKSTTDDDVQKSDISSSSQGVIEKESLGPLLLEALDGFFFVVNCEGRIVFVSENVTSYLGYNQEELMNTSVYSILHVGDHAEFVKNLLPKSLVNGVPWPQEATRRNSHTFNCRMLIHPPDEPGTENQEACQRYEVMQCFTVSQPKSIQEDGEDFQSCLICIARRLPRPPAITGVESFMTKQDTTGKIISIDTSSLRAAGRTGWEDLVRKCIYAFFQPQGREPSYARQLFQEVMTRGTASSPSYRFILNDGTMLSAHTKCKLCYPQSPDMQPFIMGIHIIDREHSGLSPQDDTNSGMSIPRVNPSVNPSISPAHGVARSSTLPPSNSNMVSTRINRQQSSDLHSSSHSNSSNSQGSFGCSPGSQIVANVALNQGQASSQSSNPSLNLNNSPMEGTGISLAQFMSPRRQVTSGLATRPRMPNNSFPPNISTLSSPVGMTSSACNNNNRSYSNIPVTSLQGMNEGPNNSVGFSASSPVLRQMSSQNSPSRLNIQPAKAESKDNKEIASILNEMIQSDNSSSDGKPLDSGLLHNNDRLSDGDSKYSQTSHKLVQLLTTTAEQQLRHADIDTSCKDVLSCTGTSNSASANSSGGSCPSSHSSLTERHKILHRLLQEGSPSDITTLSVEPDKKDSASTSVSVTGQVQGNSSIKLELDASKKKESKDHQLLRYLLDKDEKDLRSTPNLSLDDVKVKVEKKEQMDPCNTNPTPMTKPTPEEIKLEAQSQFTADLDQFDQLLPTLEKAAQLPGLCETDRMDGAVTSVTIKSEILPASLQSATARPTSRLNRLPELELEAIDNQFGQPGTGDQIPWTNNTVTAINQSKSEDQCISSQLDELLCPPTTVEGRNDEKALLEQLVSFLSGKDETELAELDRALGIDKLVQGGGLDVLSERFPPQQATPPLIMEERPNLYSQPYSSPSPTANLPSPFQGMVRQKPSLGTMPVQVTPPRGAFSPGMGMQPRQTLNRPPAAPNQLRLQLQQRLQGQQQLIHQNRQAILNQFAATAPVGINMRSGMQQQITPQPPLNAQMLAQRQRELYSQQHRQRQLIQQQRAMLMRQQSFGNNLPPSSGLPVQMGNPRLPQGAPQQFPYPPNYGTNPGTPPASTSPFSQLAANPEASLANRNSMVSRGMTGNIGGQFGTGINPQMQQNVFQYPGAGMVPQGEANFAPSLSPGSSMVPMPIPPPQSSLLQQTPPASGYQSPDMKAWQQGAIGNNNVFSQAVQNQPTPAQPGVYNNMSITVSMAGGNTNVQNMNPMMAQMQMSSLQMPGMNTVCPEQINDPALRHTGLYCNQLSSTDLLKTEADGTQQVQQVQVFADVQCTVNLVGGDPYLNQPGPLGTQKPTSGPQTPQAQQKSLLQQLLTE
# [14] = target: Peroxisome proliferator-activated receptor gamma/Nuclear receptor coactivator 3 (Homo sapiens, UniProt P37231); assay: as §1, with “3 (SRC-3)” for “1 (SRC-1)”, “assays: 1301 (Confirmation screen.), 1048 (Primary screen.)]” for “assays (depositor defined):AID1300, AID1808, AID504735, AID631]”; type: functional
# Sequence of Peroxisome proliferator-activated receptor gamma/Nuclear receptor coactivator 3 (P37231 whole entry): as the sequence (P37231 whole entry) above
# Sequence of Peroxisome proliferator-activated receptor gamma/Nuclear receptor coactivator 3 (Q9Y6Q9 whole entry, further chain): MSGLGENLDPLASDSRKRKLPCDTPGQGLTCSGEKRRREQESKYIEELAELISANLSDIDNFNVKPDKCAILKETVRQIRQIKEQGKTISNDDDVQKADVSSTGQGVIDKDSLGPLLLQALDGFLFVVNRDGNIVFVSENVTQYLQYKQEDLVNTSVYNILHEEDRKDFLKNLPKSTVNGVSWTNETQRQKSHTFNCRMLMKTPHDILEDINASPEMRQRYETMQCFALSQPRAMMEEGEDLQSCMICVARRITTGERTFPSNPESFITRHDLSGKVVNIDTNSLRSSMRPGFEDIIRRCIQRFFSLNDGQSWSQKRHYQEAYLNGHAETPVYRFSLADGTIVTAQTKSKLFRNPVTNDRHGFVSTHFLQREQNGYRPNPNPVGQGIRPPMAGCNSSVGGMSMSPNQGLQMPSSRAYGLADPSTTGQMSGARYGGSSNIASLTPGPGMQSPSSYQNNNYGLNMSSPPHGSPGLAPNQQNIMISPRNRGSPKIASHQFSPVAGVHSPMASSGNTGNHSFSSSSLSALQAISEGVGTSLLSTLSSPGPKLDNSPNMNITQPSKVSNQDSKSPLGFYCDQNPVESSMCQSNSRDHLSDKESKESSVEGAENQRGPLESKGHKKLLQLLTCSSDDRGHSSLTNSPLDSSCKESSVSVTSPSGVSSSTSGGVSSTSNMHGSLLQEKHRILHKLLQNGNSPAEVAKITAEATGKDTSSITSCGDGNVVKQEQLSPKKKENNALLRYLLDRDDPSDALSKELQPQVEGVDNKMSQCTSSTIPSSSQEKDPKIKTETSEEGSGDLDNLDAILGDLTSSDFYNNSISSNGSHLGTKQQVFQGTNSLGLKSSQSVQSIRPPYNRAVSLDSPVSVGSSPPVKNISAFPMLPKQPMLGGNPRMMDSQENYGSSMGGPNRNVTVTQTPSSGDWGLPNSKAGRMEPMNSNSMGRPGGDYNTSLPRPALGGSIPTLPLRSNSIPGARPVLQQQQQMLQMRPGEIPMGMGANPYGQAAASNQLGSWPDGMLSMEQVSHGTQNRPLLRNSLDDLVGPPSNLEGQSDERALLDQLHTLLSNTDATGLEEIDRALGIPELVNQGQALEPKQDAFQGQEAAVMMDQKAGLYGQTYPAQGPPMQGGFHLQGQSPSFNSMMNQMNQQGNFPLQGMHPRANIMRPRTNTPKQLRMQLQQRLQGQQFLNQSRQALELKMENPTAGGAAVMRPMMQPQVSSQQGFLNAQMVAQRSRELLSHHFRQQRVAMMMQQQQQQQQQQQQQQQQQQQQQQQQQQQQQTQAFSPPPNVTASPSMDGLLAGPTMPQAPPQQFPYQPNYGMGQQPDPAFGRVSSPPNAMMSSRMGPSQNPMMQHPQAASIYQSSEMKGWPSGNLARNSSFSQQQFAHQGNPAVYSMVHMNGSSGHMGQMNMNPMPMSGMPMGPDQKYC
# [15] = target: Peroxisome proliferator-activated receptor gamma/Nuclear receptor coactivator 2 (Homo sapiens, UniProt P37231); assay: TR-FRET dose response biochemical High Throughput Screening assay for agonists of the steroid receptor coactivator 2 (SRC-2) recruitment by the peroxisome proliferator-activated receptor gamma (PPAR gamma): non-selective agonists. [Related pubchem assays: 1297, 1032 ]; type: functional
# [16] = target: T3, Voltage-gated N-type calcium channel alpha-1B subunit/Amyloid beta A4 precursor protein-binding family A member 1 (Homo sapiens, UniProt Q00975+Q02410); type: protein assay
# [17] = target: T3, Voltage-gated N-type calcium channel alpha-1B subunit/Amyloid beta A4 precursor protein-binding family A member 1; type: protein assay; remark: listed apart in the source
# Cytochrome P450 2C9 = Cytochrome P450 2C9 (Homo sapiens, UniProt P11712)
# HEK293 [18] = assay: HEK cell cytotoxicity by LDH release, dose response, cytotoxicity control for IDE activator project, fluorescence, HEK cells (AID 588440); type: functional, cell-based; settings: Homo sapiens;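 note: cytotoxicity by LDH release measuring loss of membrane integrity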
# HEK293 [19] = assay: optical interference in Abeta FP readout, dose response, artefact control for IDE activator project, biochemical, fluorescence polarization (AID 588442); type: functional, cell-based; settings: Homo sapiens
# [20] = target: Dual specificity tyrosine-phosphorylation-regulated kinase 1A (Rattus norvegicus, UniProt Q63470); type: biochemical, Homo sapiens
# [21] = target: T4, Carboxy-terminal domain RNA polymerase II polypeptide A small phosphatase 1 (Homo sapiens, UniProt Q9GZU7); assay: inhibitors of CTDSP1, concentration-response testing, biochemical assay, absorbance-based, actives from ultra-high-throughput screening (AID 540297); type: functional
# T4 sequence (Q9GZU7 whole entry): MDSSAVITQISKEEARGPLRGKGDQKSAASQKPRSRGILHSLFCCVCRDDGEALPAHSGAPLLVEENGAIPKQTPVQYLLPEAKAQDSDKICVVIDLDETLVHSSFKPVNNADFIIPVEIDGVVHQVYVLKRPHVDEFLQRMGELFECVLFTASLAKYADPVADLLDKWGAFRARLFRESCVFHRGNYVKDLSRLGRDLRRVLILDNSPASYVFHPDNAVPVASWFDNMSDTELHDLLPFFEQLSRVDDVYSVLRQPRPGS
# cells = type: functional
# Large T antigen = Large T antigen (Simian virus 40, UniProt P03070); type: functional, Betapolyomavirus macacae;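 note: Confirmatory-stage PubChem screen for compounds that inhibit SV40 T antigen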
# Vero = Vero cell cytotoxicity, cytotoxicity control for flavivirus capping enzyme inhibitors (AID 588742); type: functional; settings: Chlorocebus sabaeus
smiles,measurement,setting,value
COC(=O)CSc1nc2cc(C)ccc2cc1C#N,EC50,[1],> 99 µM (inactive)
same,EC50,[2],> 99 µM (inactive)
c1ccc(-n2nnc3c(N4CCOCC4)ncnc32)cc1,CC50,[3],23.6 µM (active)
same,EC50,[4],6.29 µM (inconclusive)
same,EC50,[5],8.24 µM (active)
same,EC50,[6],7.18 µM (inconclusive)
same,AC50,HEK293 [7],2.47 µM (active)
same,AC50,[8],> 52 µM (inactive)
same,AC50,[9],> 52 µM (inactive)
same,AC50,[10],7.67 µM (active)
same,AC50,[11],8.39 µM (active)
COc1ccc(NC(=O)N2CC[C@@]3(CCCN(C(=O)c4cnccn4)C3)C2)cc1,AC50,Cytochrome P450 3A4,3.16 µM (inconclusive)
same,AC50,Cytochrome P450 2D6,inconclusive
Cc1ccc(/C=C/C(=O)C2C(=O)c3ccccc3C2=O)cc1,EC50,[12],1.95 µM (active)
same,EC50,Streptokinase A,> 150 µM (not active)
same,EC50,Streptococcus,9.64 µM (active)
same,AC50,HEK293 [7],4.18 µM (active)
Cn1c(=O)cc(SCC(=O)N2CCN(Cc3ccc4c(c3)OCO4)CC2)c2ccccc21,EC50,[13],> 79.4 µM (inactive)
same,EC50,[14],> 79.4 µM (not active)
same,EC50,[15],> 79.4 µM (not active)
O=C1C2C(C(=O)N1/N=C/c1ccc(N3CCCCC3)o1)C1C=CC2C12CC2 (stereo not drawn),IC50,[16],7.24 µM (active)
same,IC50,[17],20.1 µM (active)
CCOC(=O)N1CCC(NC(=O)CSc2cc(=O)n(C)c3ccccc23)CC1,EC50,[13],> 79.4 µM (inactive)
same,EC50,[14],> 79.4 µM (not active)
same,EC50,[15],> 79.4 µM (not active)
COc1ccccc1NC(=O)CC(c1ccc(OC(C)C)cc1)c1ccccc1OC (stereo not drawn),AC50,HEK293 [7],194 µM (active)
CC1=C(C(=O)O)N2C(=O)[C@@H](NC(=O)CCCC(=O)O)[C@H]2SC1,IC50,[16],34 µM (active)
same,IC50,[17],> 50 µM (inactive)
Nc1c(C(=O)NC2CCCC2)sc2nc(-c3cccs3)ccc12,EC50,[1],> 99 µM (inactive)
same,EC50,[2],54 µM (inactive)
O=C(NCc1ccccn1)c1cc(-c2ccccc2Cl)on1,AC50,Cytochrome P450 3A4,15.8 µM (inconclusive)
same,AC50,Cytochrome P450 2D6,inconclusive
same,AC50,Cytochrome P450 2C9,inconclusive
Cc1[nH]c(O)nc1C(=O)CCCCC(=O)O,IC50,HEK293 [18],> 89.3 µM (inactive)
same,EC50,HEK293 [19],22.6 µM (inactive)
O=C1NC(=O)N(c2ccccc2)C(=O)/C1=C/c1c(-c2ccccc2)[nH]c2ccccc12,AC50,[20],2.65 µM (active)
COc1ccc([C@@H]2CC(=O)c3c(O)cc(O[C@@H]4O[C@H](CO[C@@H]5O[C@@H](C)[C@H](O)[C@@H](O)[C@H]5O)[C@@H](O)[C@H](O)[C@H]4O)cc3O2)cc1O [HESPERIDIN],IC50,[16],9.5 µM (active)
same,IC50,[17],> 50 µM (inactive)
same,IC50,[21],20.7 µM (active)
CC(=O)n1cc(/C=C2/N=C(c3ccccc3)OC2=O)c2ccccc21,IC50,cells,4.63 µM (active)
same,EC50,[1],> 99 µM (inactive)
same,EC50,[2],> 99 µM (inactive)
O=C(O)CCC(=O)c1ccc2ccc3cccc4ccc1c2c34,AC50,Cytochrome P450 2D6,inconclusive
CCCCn1c(O)c(N=Nc2ccccc2O)c2ccccc21,EC50,[1],44.9 µM (inactive)
same,EC50,[2],69.5 µM (inactive)
Oc1ccc(NCc2cccs2)cc1,IC50,Large T antigen,28.7 µM (active)
same,CC50,Vero,> 40 µM (active)
CCCC1O[C@@H]2CC3C4CCC5=CC(=O)C=C[C@]5(C)C4C(OC(C)=O)C[C@]3(C)[C@]2(C(=O)COC(C)=O)O1 (stereo partly drawn),EC50,[4],22.1 µM (active)
same,EC50,[13],6.65 µM (active)
same,EC50,[5],> 120 µM (not active)
same,EC50,[14],4.66 µM (active)
same,EC50,[6],18.8 µM (active)
same,EC50,[15],8.71 µM (active)

# — ChEMBL document CHEMBL1201862, “PubChem BioAssay data set” (2004)
